Experimental data: patent publication US8486939B2, “Pyrimidinyl and 1,3,5-triazinyl benzimidazoles and their use in cancer therapy” (Pathway Therapeutics Inc., priority 2009, dated 2013)

What was measured:
p110δ/p85 = p110δ/p85 (Homo sapiens, UniProt O00329); test: Inhibition of isolated enzyme (lipid kinase assay, [γ33P]ATP, TLC); type: biochemical; conditions: recombinant enzyme, 100 μM ATP, 1 hr room temperature, average of two experiments
Method: (§1) Compounds were evaluated for their ability to inhibit Class I PI 3-kinase enzymes p110δ/p85, p110α/p85, and p110β/p85. Reaction mixtures comprising 0.1 μg of a recombinant enzyme, 10 μg of L-α-phosphatidylinositol, and 2× Lipid Kinase Buffer (40 mM Tris-HCl, pH 7.4, 200 mM NaCl, 1 mM EDTA), which contains either DMSO only as a control or the test compound in DMSO (the final DMSO concentration is 1%), were activated by the addition of an ATP mix (5 mM MgCl2, 100 μM ATP, and 0.1 μL [γ^33P]ATP). Reactions were incubated at room temperature for 1 hr, and then stopped by the addition of 1M HCl. The lipids were then extracted using a two step procedure. Firstly, 200 μL of chloroform/methanol (1:1) was added, the biphasic reactions mixed and centrifuged briefly, and the inorganic phase was removed and discarded. Following this, 80 μL of methanol:HCl (1:1) was added and the same procedure followed. The organic phase (70 μL) was then transferred to a clean 1.6 mL tube and the reactions were dried using a Speedvac, with no heating, for […]. The reactions were spotted onto TLC plates (Merck Ltd) and developed for 1 hr in propanol-1:2 M acetic acid (13:7). The TLC plates were then dried at room temperature and quantified using a phosphorimager (StormImager, Amersham). Nine compound concentrations were used for each test compound to determine its IC50 value. Each experiment was performed twice and the average IC50 value is used herein.

p110α/p85 = p110α/p85 (Homo sapiens, UniProt P42336); test: as above; type: biochemical; conditions: recombinant enzyme, 100 μM ATP, 1 hr room temperature, average of two experiments
Method: as §1

Chain of p110α/p85 (P42336 whole entry): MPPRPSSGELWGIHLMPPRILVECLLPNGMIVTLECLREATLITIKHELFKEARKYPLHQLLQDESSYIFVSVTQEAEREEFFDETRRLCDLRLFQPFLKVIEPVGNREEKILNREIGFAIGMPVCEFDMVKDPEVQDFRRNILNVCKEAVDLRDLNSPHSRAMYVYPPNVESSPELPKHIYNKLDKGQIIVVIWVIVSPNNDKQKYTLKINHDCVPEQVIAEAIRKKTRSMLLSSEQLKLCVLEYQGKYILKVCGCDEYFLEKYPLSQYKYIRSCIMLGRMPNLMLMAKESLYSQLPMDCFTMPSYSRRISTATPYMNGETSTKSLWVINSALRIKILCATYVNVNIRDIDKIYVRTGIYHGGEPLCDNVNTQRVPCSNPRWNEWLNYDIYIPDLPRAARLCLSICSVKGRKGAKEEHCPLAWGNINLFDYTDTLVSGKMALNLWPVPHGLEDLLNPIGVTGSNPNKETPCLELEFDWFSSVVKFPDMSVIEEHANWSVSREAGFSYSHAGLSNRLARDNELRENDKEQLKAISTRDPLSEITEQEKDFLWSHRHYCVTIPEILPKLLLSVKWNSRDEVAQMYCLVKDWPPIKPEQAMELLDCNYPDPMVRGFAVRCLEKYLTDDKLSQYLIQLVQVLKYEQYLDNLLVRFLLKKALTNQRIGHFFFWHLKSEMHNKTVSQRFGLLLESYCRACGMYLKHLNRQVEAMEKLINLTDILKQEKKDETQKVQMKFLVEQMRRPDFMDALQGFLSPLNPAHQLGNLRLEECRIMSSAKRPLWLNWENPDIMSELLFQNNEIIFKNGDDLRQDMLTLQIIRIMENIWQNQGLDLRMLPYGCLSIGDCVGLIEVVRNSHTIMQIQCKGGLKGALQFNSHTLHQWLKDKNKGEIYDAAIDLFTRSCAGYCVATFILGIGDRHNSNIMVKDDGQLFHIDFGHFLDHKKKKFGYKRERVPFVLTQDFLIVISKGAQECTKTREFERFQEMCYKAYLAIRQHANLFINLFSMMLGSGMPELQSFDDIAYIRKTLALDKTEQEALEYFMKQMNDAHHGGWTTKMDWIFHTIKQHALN
Chain of p110α/p85 (P27986 whole entry partner): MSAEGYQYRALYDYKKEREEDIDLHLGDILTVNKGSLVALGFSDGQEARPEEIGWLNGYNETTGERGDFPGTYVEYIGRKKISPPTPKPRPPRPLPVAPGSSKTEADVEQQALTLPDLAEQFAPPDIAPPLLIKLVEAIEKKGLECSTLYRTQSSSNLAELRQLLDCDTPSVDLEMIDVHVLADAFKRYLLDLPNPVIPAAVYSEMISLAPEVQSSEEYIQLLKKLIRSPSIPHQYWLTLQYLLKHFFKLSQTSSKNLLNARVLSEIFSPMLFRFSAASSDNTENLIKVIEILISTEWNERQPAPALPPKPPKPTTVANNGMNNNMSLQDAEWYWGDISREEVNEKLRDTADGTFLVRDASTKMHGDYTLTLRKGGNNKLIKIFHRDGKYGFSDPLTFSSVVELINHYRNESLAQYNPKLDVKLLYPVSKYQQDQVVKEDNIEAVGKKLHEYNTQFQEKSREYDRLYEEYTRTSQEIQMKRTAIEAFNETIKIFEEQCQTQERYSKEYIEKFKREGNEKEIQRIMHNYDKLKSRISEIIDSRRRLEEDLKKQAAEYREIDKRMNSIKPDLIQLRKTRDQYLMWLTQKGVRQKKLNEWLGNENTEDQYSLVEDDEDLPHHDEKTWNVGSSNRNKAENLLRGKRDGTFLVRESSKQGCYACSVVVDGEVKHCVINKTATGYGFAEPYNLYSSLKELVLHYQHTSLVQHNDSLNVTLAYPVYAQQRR
Chain of p110δ/p85 (O00329 whole entry, species assumed): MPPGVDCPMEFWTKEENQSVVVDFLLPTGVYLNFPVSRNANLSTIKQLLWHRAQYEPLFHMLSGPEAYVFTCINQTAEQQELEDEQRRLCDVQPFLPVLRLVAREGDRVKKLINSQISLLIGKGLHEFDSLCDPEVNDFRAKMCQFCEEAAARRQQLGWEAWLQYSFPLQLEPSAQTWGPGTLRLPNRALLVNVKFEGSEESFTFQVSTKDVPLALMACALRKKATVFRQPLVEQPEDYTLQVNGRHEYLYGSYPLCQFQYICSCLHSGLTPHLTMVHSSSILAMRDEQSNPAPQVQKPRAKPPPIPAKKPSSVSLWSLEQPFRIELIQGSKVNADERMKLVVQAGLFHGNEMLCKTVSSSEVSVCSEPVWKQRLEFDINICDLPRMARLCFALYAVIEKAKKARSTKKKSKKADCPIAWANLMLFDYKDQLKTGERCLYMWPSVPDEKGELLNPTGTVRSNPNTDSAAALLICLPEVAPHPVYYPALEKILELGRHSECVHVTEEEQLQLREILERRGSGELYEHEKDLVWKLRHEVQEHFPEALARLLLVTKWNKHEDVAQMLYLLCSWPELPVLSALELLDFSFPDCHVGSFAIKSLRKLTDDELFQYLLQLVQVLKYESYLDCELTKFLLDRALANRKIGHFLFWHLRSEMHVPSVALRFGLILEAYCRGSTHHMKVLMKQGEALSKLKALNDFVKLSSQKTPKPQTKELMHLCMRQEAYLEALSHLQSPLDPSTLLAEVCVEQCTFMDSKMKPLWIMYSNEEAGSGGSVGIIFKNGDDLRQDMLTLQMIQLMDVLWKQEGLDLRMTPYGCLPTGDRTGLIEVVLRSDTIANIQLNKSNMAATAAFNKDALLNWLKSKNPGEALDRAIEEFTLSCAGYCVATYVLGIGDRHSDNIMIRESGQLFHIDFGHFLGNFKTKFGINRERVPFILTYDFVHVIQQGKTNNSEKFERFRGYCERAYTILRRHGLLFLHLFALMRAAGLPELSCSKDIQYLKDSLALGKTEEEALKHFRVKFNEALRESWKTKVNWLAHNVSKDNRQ
Chain of p110δ/p85 (P27986 whole entry partner, species assumed): as the sequence (P27986 whole entry partner) above

Row | SMILES | melting point | IC50 (p110δ/p85) [nM] | IC50 (p110α/p85) [nM]
1 | COc1cccc2c1nc(C(F)F)n2-c1nc(Nc2cnc(N(C)CCN(C)C)nc2)nc(N2CCOCC2)n1 [Example 42, N^5-[4-[2-(difluoromethyl)-4-methoxy-1H-benzimidazol-1-yl]-6-(4-morpholinyl)-1,3,5-triazin-2-yl]-N^2-[2-(dimethylamino)ethyl]-N^2-methyl-2,5-pyrimidinediamine] | 96 to 98 °C | < 100 | < 100
2 | COc1cccc2c1nc(C(F)F)n2-c1nc(Nc2cnc(N(C)CCCN(C)C)nc2)nc(N2CCOCC2)n1 [Example 43, N^5-[4-[2-(difluoromethyl)-4-methoxy-1H-benzimidazol-1-yl]-6-(4-morpholinyl)-1,3,5-triazin-2-yl]-N^2-[3-(dimethylamino)propyl]-N^2-methyl-2,5-pyrimidinediamine] | 97 to 99 °C | < 100 | < 100
3 | CN(c1cncnc1)c1nc(N2CCOCC2)nc(-n2c(C(F)F)nc3ccccc32)n1 [Example 44, 4-[2-(difluoromethyl)-1H-benzimidazol-1-yl]-N-methyl-6-(4-morpholinyl)-N-(5-pyrimidinyl)-1,3,5-triazin-2-amine] | 202 to 205 °C | < 100 | < 100
4 | COc1cc(N)cc2c1nc(C(F)F)n2-c1nc(N2CCOCC2)nc(-n2cccn2)n1 [Example 64, 2-(Difluoromethyl)-4-methoxy-1-[4-(4-morpholinyl)-6-(1H-pyrazol-1-yl)-1,3,5-triazin-2-yl]-1H-benzimidazol-6-ylamine] | – | < 100 | < 100
5 | COc1cc(N)cc2c1nc(C(F)F)n2-c1nc(-c2ccn(C)n2)nc(N2CCOCC2)n1 [Example 65, 2-(Difluoromethyl)-4-methoxy-1-[4-(1-methyl-1H-pyrazol-3-yl)-6-(4-morpholinyl)-1,3,5-triazin-2-yl]-1H-benzimidazol-6-ylamine] | – | < 100 | < 100
6 | COc1cc(N)cc2c1nc(C(F)F)n2-c1nc(-c2cn[nH]c2)nc(N2CCOCC2)n1 [Example 66, 2-(Difluoromethyl)-4-methoxy-1-[4-(4-morpholinyl)-6-(1H-pyrazol-4-yl)-1,3,5-triazin-2-yl]-1H-benzimidazol-6-ylamine] | – | < 100 | < 100
7 | COc1cc(N)cc2c1nc(C(F)F)n2-c1nc(-c2cccnc2)cc(N2CCOCC2)n1 [Example 68, 2-(Difluoromethyl)-4-methoxy-1-[4-(4-morpholinyl)-6-(3-pyridinyl)-2-pyrimidinyl]-1H-benzimidazol-6-ylamine] | – | < 100 | < 100

The remaining lines, values ahead:

Row | melting point | IC50 (p110δ/p85) [nM] | IC50 (p110α/p85) [nM] | SMILES
8 | 295 °C (dec.) | < 100 | < 100 | COc1cccc2c1nc(C(F)F)n2-c1nc(Nc2cnc(Cl)nc2)nc(N2CCOCC2)n1 [Example 41, N-(2-chloro-5-pyrimidinyl)-4-[2-(difluoromethyl)-4-methoxy-1H-benzimidazol-1-yl]-6-(4-morpholinyl)-1,3,5-triazin-2-amine]
9 | 214 to 217 °C | < 100 | < 100 | COc1cccc2c1nc(C(F)F)n2-c1nc(N2CCOCC2)nc(N(C)c2cncnc2)n1 [Example 45, 4-[2-(difluoromethyl)-4-methoxy-1H-benzimidazol-1-yl]-N-methyl-6-(4-morpholinyl)-N-(5-pyrimidinyl)-1,3,5-triazin-2-amine]
10 | 208 to 210 °C | < 100 | < 100 | COc1cccc2c1nc(C(F)F)n2-c1nc(-c2cccnc2)nc(N2CCOCC2)n1 [Example 48, 2-(difluoromethyl)-4-methoxy-1-[4-(4-morpholinyl)-6-(3-pyridinyl)-1,3,5-triazin-2-yl]-1H-benzimidazole]
11 | 259 to 261 °C | < 100 | < 100 | COc1cccc2c1nc(C(F)F)n2-c1nc(-c2ccc(N)nc2)nc(N2CCOCC2)n1 [Example 49, 5-[4-[2-(difluoromethyl)-4-methoxy-1H-benzimidazol-1-yl]-6-(4-morpholinyl)-1,3,5-triazin-2-yl]-2-pyridinamine]
